Experimental data published in PubChem BioAssay AID1963959 (Molecular Pharmacology Branch, DTP, NCI, 2024).

Tested on: T-47D spheroids with HUVEC/MSC, viability
Experiment: Anticancer human tumor T-47D cell line growth inhibition [PI3K];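 also: spheroids exposed to agents for seven days before reading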;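 as to viability, T/C: percent of DMSO vehicle control luminescence so 100% = untreated growth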
Conditions: for IC50: curve of first compound; for viability, T/C: stronger effect = lower value; active = viability on the fitted dose curve at most 10% of control; inactive = the rest
Outline: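 Spheroid viability read-out. Co-cultures contained the tumor line plus HUVEC and human MSCs. Each agent was paired with a PI3K inhibitor (inavolisib, alpelisib, duvelisib, copanlisib) across half-log dilutions starting at clinical Cmax, or at 10 microM when Cmax was unknown.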

[1] = second compound 0.00316 µM, first compound 0.0316 µM
[2] = second compound 0.00316 µM, first compound 0.1 µM
[3] = second compound 0.00316 µM, first compound 0.316 µM
[4] = second compound 0.00316 µM, first compound 1 µM
[5] = second compound 0.00316 µM, first compound 3.16 µM
[6] = second compound 0.00316 µM, first compound 10 µM
[7] = second compound 0.01 µM, first compound 0.0316 µM
[8] = second compound 0.01 µM, first compound 0.1 µM
[9] = second compound 0.01 µM, first compound 0.316 µM
[10] = second compound 0.01 µM, first compound 1 µM
[11] = second compound 0.01 µM, first compound 3.16 µM
[12] = second compound 0.01 µM, first compound 10 µM
[13] = second compound 0.0316 µM, first compound 0.0316 µM
[14] = second compound 0.0316 µM, first compound 0.1 µM
[15] = second compound 0.0316 µM, first compound 0.316 µM
[16] = second compound 0.0316 µM, first compound 1 µM
[17] = second compound 0.0316 µM, first compound 3.16 µM
[18] = second compound 0.0316 µM, first compound 10 µM
[19] = second compound 0.1 µM, first compound 0.0316 µM
[20] = second compound 0.1 µM, first compound 0.1 µM
[21] = second compound 0.1 µM, first compound 0.316 µM
[22] = second compound 0.1 µM, first compound 1 µM
[23] = second compound 0.1 µM, first compound 3.16 µM
[24] = second compound 0.1 µM, first compound 10 µM
[25] = second compound 0.316 µM, first compound 0.0316 µM
[26] = second compound 0.316 µM, first compound 0.1 µM
[27] = second compound 0.316 µM, first compound 0.316 µM
[28] = second compound 0.316 µM, first compound 1 µM
[29] = second compound 0.316 µM, first compound 3.16 µM
[30] = second compound 0.316 µM, first compound 10 µM
[31] = second compound 1 µM, first compound 0.0316 µM
[32] = second compound 1 µM, first compound 0.1 µM
[33] = second compound 1 µM, first compound 0.316 µM
[34] = second compound 1 µM, first compound 1 µM
[35] = second compound 1 µM, first compound 3.16 µM
[36] = second compound 1 µM, first compound 10 µM

Cn1cnc2c(F)c(Nc3ccc(Br)cc3Cl)c(C(=O)NOCCO)cc21 + Cc1nc(NC(=O)N2CCCC2C(N)=O)sc1-c1ccnc(C(C)(C)C(F)(F)F)c1
< 0.00949 µM: IC50 (second compound 10 µM)
inactive: viability, T/C (second compound 0.0316 µM, first compound 0.00949 µM) 118% | viability, T/C (second compound 0.0316 µM, first compound 0.03 µM) 93.1% | viability, T/C (second compound 0.0316 µM, first compound 0.0949 µM) 92.6% | viability, T/C (second compound 0.0316 µM, first compound 0.3 µM) 85.5% | viability, T/C (second compound 0.0316 µM, first compound 0.949 µM) 93.1% | viability, T/C (second compound 0.0316 µM, first compound 3 µM) 105% | viability, T/C (second compound 0.1 µM, first compound 0.00949 µM) 94.9% | viability, T/C (second compound 0.1 µM, first compound 0.03 µM) 96.7% | viability, T/C (second compound 0.1 µM, first compound 0.0949 µM) 85.7% | viability, T/C (second compound 0.1 µM, first compound 0.3 µM) 96.1% | viability, T/C (second compound 0.1 µM, first compound 0.949 µM) 84.9% | viability, T/C (second compound 0.1 µM, first compound 3 µM) 92.3% | viability, T/C (second compound 0.316 µM, first compound 0.00949 µM) 97.4% | viability, T/C (second compound 0.316 µM, first compound 0.03 µM) 102% | viability, T/C (second compound 0.316 µM, first compound 0.0949 µM) 92.6% | viability, T/C (second compound 0.316 µM, first compound 0.3 µM) 91.2% | viability, T/C (second compound 0.316 µM, first compound 0.949 µM) 95.5% | viability, T/C (second compound 0.316 µM, first compound 3 µM) 92.3% | viability, T/C (second compound 1 µM, first compound 0.00949 µM) 88.2% | viability, T/C (second compound 1 µM, first compound 0.03 µM) 81.3% | viability, T/C (second compound 1 µM, first compound 0.0949 µM) 96.2% | viability, T/C (second compound 1 µM, first compound 0.3 µM) 93.4% | viability, T/C (second compound 1 µM, first compound 0.949 µM) 85.8% | viability, T/C (second compound 1 µM, first compound 3 µM) 96% | viability, T/C (second compound 3.16 µM, first compound 0.00949 µM) 77% | viability, T/C (second compound 3.16 µM, first compound 0.03 µM) 67.8% | viability, T/C (second compound 3.16 µM, first compound 0.0949 µM) 65.4% | viability, T/C (second compound 3.16 µM, first compound 0.3 µM) 65.5% | viability, T/C (second compound 3.16 µM, first compound 0.949 µM) 66.8% | viability, T/C (second compound 3.16 µM, first compound 3 µM) 72.2% | viability, T/C (second compound 10 µM, first compound 0.00949 µM) 36.7% | viability, T/C (second compound 10 µM, first compound 0.03 µM) 38.9% | viability, T/C (second compound 10 µM, first compound 0.0949 µM) 41.8% | viability, T/C (second compound 10 µM, first compound 0.3 µM) 37.7% | viability, T/C (second compound 10 µM, first compound 0.949 µM) 39.6% | viability, T/C (second compound 10 µM, first compound 3 µM) 36.6%
> 3 µM: IC50 (second compound 0.0316 µM) | IC50 (second compound 0.1 µM) | IC50 (second compound 0.316 µM) | IC50 (second compound 1 µM) | IC50 (second compound 3.16 µM)

CC1(C)CCC(CN2CCN(c3ccc(C(=O)NS(=O)(=O)c4ccc(NCC5CCOCC5)c([N+](=O)[O-])c4)c(Oc4cnc5[nH]ccc5c4)c3)CC2)=C(c2ccc(Cl)cc2)C1 + COc1c(OCCCN2CCOCC2)ccc2c3n(c(=NC(=O)c4cnc(N)nc4)nc12)CCN3
inactive: viability, T/C [1] 117% | viability, T/C [2] 80.5% | viability, T/C [3] 122% | viability, T/C [4] 74% | viability, T/C [5] 82.4% | viability, T/C [6] 108% | viability, T/C [7] 100% | viability, T/C [8] 69.8% | viability, T/C [9] 91.5% | viability, T/C [10] 78.6% | viability, T/C [11] 80.1% | viability, T/C [12] 88.1% | viability, T/C [13] 73% | viability, T/C [14] 81.8% | viability, T/C [15] 67.3% | viability, T/C [16] 69.4% | viability, T/C [17] 58.5% | viability, T/C [18] 75.1% | viability, T/C [19] 43.7% | viability, T/C [20] 42.3% | viability, T/C [21] 37.1% | viability, T/C [22] 38% | viability, T/C [23] 35.2% | viability, T/C [24] 41.4% | viability, T/C [25] 15.6% | viability, T/C [26] 22.3% | viability, T/C [27] 17.9% | viability, T/C [28] 18.1% | viability, T/C [29] 14.8% | viability, T/C [30] 16.6%
active: viability, T/C [31] 6.44% | viability, T/C [32] 6.49% | viability, T/C [33] 6.92% | viability, T/C [34] 7.19% | viability, T/C [35] 4.62% | viability, T/C [36] 9.27%
> 10 µM: IC50 (second compound 0.00316 µM) | IC50 (second compound 0.01 µM) | IC50 (second compound 0.0316 µM)
< 0.0316 µM: IC50 (second compound 0.1 µM) | IC50 (second compound 0.316 µM) | IC50 (second compound 1 µM)

Cn1ncc(Cl)c1-c1cc(C(=O)NC(CN)Cc2cccc(F)c2)sc1Cl (stereo unspecified) + COc1c(OCCCN2CCOCC2)ccc2c3n(c(=NC(=O)c4cnc(N)nc4)nc12)CCN3
> 10 µM: IC50 (second compound 0.00316 µM) | IC50 (second compound 0.01 µM) | IC50 (second compound 0.0316 µM)
active: viability, T/C [31] 7.39% | viability, T/C [32] 7.86% | viability, T/C [33] 6.72% | viability, T/C [34] 6.88% | viability, T/C [35] 15.6% | viability, T/C [36] 10.9%
inactive: viability, T/C [1] 105% | viability, T/C [2] 102% | viability, T/C [3] 82.3% | viability, T/C [4] 77.4% | viability, T/C [5] 66.2% | viability, T/C [6] 77.7% | viability, T/C [7] 108% | viability, T/C [8] 99.8% | viability, T/C [9] 80.5% | viability, T/C [10] 70.3% | viability, T/C [11] 70% | viability, T/C [12] 77.7% | viability, T/C [13] 94.4% | viability, T/C [14] 70.6% | viability, T/C [15] 61.5% | viability, T/C [16] 65% | viability, T/C [17] 65.1% | viability, T/C [18] 73.2% | viability, T/C [19] 48.8% | viability, T/C [20] 46.5% | viability, T/C [21] 39.4% | viability, T/C [22] 39.2% | viability, T/C [23] 55.7% | viability, T/C [24] 48.7% | viability, T/C [25] 17.2% | viability, T/C [26] 20.4% | viability, T/C [27] 19.1% | viability, T/C [28] 19.6% | viability, T/C [29] 24.3% | viability, T/C [30] 39.5%
< 0.0316 µM: IC50 (second compound 0.1 µM) | IC50 (second compound 0.316 µM) | IC50 (second compound 1 µM)
